Tests used:
Test in all cases: isothermal titration calorimetry
[1] = biological target: T1, Cra (catabolite repressor/activator; FruR) (Escherichia coli, UniProt P0ACP1, D101R/D148R/G274R); conditions: 25 °C; 50 mM FBP injected into 15 μM protein (Fig. 5 legend prints 15 mM); effector-binding site; mutant of strain Tang1683
T1 construct: 2IKS is effector-free regulatory domain used for docking

[2] = biological target: T2, Cra (catabolite repressor/activator; FruR) (Escherichia coli, UniProt P0ACP1); conditions: 25 °C; 50 mM FBP injected into 15 μM protein (Fig. 5 legend prints 15 mM); effector-binding site
T2 construct: 2IKS is effector-free regulatory domain used for docking

[3] = biological target: T3, Cra (catabolite repressor/activator; FruR) (Escherichia coli, UniProt P0ACP1, D148R/A248F/G274R); conditions: 25 °C; 50 mM FBP injected into 15 μM protein (Fig. 5 legend prints 15 mM); effector-binding site; mutant of strain Tang1684
T3 construct: 2IKS is effector-free regulatory domain used for docking

[4] = biological target: T4, Cra (catabolite repressor/activator; FruR) (Escherichia coli, UniProt P0ACP1, N73Y/D148R/G274R); conditions: 25 °C; 50 mM FBP injected into 15 μM protein (Fig. 5 legend prints 15 mM); effector-binding site; mutant of strain Tang1688
T4 construct: 2IKS is effector-free regulatory domain used for docking

## O=P(O)(O)OC[C@H]1OC(O)(COP(=O)(O)O)[C@@H](O)[C@@H]1O (stereo partly shown) [fructose-1,6-bisphosphate]
[1]
  Kd: 154 ± 4.3 nM
[2]
  Kd: 1360 ± 6.2 nM
[3]
  Kd: 728.3 ± 3.8 nM
[4]
  Kd: 809.1 ± 4.6 nM

Source: article PMC5146860, “Succinate production positively correlates with the affinity of the global transcription factor Cra for its effector FBP in Escherichia coli” (Biotechnology for Biofuels, 2016)
